pIC50: −log10 of the molar value. Read-outs that look alike come from different tables or passages of the source.
Legend:
[1] = tested on: IGR39 human melanoma cells; assay: MTT cell viability assay, IGR39; type: cell-based
Protocol: (§1) The MTT assay was first described as a sensitive, quantitative, and reliable colorimetric assay to measure the viability, proliferation, and activation of cells. Cell viability was assessed at 24 and 72 h of treatment to evaluate cytotoxicity and the effect on cell proliferation of the decavanadate compound, respectively. The concentrations of the decavanadate compound have been determined by weighing the compound in its crystal form and then solubilizing it in distilled water.
(§2) All cell lines were seeded in 96-well plates (Nunc, Roskilde, Denmark) at a density of 10^4 cells per well and were incubated overnight, before treatment with different concentrations of the decavanadate compound. After 24 or 72 h of treatment, fresh media solution containing MTT at 0.5 mg/mL was added to cells and incubated for 3 h at 37°C. The formed formazan crystals were then dissolved in DMSO, and the absorbance was measured at 560 nm using a BioTek EON Microplate Spectrophotometer (Fisher Scientific). Cell viability was expressed as a percentage of the viable cell number of the untreated cells (control [CTR]).
(§3) The concentration of the decavanadate compound required for 50% growth inhibition (IC50 value) was estimated as resulting in a 50% decrease in absorbance, compared to the CTR.

[2] = tested on: murine B16-F10 melanoma cells; settings: cited from earlier work
[3] = tested on: normal human keratinocyte cells (HaCaT); settings: cited from earlier work
[4] = tested on: IGR37 human melanoma cells; assay: MTT cell viability assay, IGR37; type: cell-based
Protocol: as §1, §2, §3

[5] = tested on: human SK-MEL-28 melanoma; settings: cited from earlier work
[6] = tested on: COLO829 melanoma cell; set-up: method as in PMID 32967177; settings: read-out: IC50, cell proliferation; cited from earlier work
[7] = tested on: skin papillomas caused by the injection of DMBA and croton oil; set-up: method as in PMID 28010928; settings: 5 mg/kg; cited from earlier work
[8] = tested on: A375 human melanoma cell; set-up: method as in PMID 33132760; settings: A375, 24 h treatment, cited from earlier work
[9] = tested on: allograft model of B16-F10 cells in mice; set-up: method as in PMID 29407869, PMID 6722991; settings: cited from earlier work
[10] = tested on: IGR39 cells; settings: IGR39 proliferation; read-out: IC50, antiproliferative effect on IGR39; cited from earlier work
[11] = tested on: UACC-62 human melanoma cells; settings: UACC-62, at 5 μM; cited from earlier work

With N.N.[Cl][Pt][Cl] [Cisplatin, cisplatin] the pIC50 ([1]; IGR39, 24 h treatment) was 4.08, the “IC50, cell viability” value ([1]; IGR39, 24 h treatment) was 25 µg/mL and the pIC50 ([1]; IGR39, 72 h treatment) was 4.90. For the same compound, the “IC50, cell viability” value ([1]; IGR39, 72 h treatment) was 3.8 µg/mL, the pIC50 ([2]; B16-F10, 24 h) was 4.71 and the pIC50 ([2]; B16-F10, 72 h) was 5.00. The pIC50 ([3]; HaCaT, 24 h) was 4.62, the pIC50 ([3]; HaCaT, 72 h) was 4.62 and the pIC50 ([3]; keratinocyte cell line, 'was reported', no reference printed in the abstract) was 4.62. For the same compound, the pIC50 ([4]; IGR37, 24 h treatment) was 4.58, the “IC50, cell viability” value ([4]; IGR37, 24 h treatment) was 8 µg/mL and the pIC50 ([4]; IGR37, 72 h treatment) was 5.52. For the same compound, the “IC50, cell viability” value ([4]; IGR37, 72 h treatment) was 0.9 µg/mL, the pIC50 ([5]; SKMEL28, 24 h) was under 4.90 and the pIC50 ([5]; SKMEL28, 72 h) was 5.02.
For CN(C)c1ccc(O)c2c1C[C@H]1C[C@H]3[C@H](N(C)C)C(O)=C(C(N)=O)C(=O)[C@@]3(O)C(O)=C1C2=O [Minocycline], the pIC50 [6] is given as 4.86.
In the case of C[C@H]1c2cccc(O)c2C(=O)C2=C(O)[C@]3(O)C(=O)C(C(N)=O)=C(O)[C@@H](N(C)C)[C@@H]3[C@@H](O)[C@@H]21 [doxycycline], the pIC50 [6] is given as 4.79.
For [O]=[V]([O-])([O-])[O-] [orthovanadate], the “Incidence of skin papillomas” value [7] is listed as “partially inhibited the incidence of skin papillomas”.
For C[C@@H]1O[C@@H](OC[C@H]2O[C@@H](Oc3c(-c4ccc(O)c(O)c4)oc4cc(O)cc(O)c4c3=O)[C@H](O)[C@@H](O)[C@@H]2O)[C@H](O)[C@H](O)[C@H]1O [rutoside], the “IC50, cell viability” value [8] is listed as “about 100 μg/mL” and the pIC50 ([8]; read-out: IC50, cell viability) is listed as about 3.79.
For [O]=[V]([O-])([O-])[O-] [vanadate], the “Tumor size and incidence” value [9] is listed as “significantly decreased tumor size and their incidence”.
In the case of O=S(=O)([O-])[O-].[O]=[V+2] [vanadyl sulfate], the “Tumor size and incidence” value [9] is listed as “significantly decreased tumor size and their incidence”.
In the case of (C4N2H7)6(C4N2H6)2V10O28, the pIC50 [10] is listed as 5.15.
In the case of (NH4)4Li2V10O2810H2O, the pIC50 [10] is listed as 5.01.
For Mg(H2O)6(C4N2H7)4V10O28·4H2O, the pIC50 [10] is given as 5.70.
For metformin–decavanadate [Metf-V10], the Inhibition of proliferation [11] is given as 80%.

From article PMC11742080, “Decavanadate Compound Displays In Vitro and In Vivo Antitumor Effect on Melanoma Models” (Bioinorganic Chemistry and Applications, 2025)
